Measured values reported in US20250099622A1, “COMPOSITIONS AND METHODS FOR EXPRESSING THERAPEUTICS” (priority 2022, published 2025).
“Also recorded” adds a separate entry of the source.

Tests used:
[1] = system: TUJ-1+ and cone arrestin+ cells; test: NMDA excitotoxicity mouse model: immunohistochemistry (TUJ-1, cone arrestin); type: in vivo, C57BL/6); conditions: Groups 1 and 2, Day 7, qualitative
Method: All eyes designated for immunohistochemistry (IHC) were enucleated, the approximate site of injection was marked, and eyes were fixed at 4° C. in 4% paraformaldehyde in separately labeled vials overnight. Eyes were then transferred into 0.1M phosphate buffer (PB), brought through a sequential sucrose gradient (10-30%, 1 hour each) followed by embedding in OCT medium and freezing on dry ice.
Negative controls were performed for the staining cocktail by utilizing only the secondary antibody. Five slides spanning the retina for each eye were stained. Two pictures per retinal cross-section—one at or near the injection site and one from a central region—were taken using an Olympus Bx63 upright fluorescent microscope and cellSens software. […] All groups had clear cone arrestin staining with some TUJ-1+ cells observed (FIG. 12B). No further staining or analysis was performed on cross-sections as the staining was not an informative endpoint.

[2] = system: retinal ganglion cells (RGC); test: NMDA excitotoxicity mouse model: RGC count by H&E histopathology; type: in vivo, C57BL/6); conditions: for RGC #/HPF (400X): H&E, single animals, Group 2
Method: This study was for evaluating the effect of adeno-associated viral (AAV) vectors on retinal ganglion cell protection following damage caused via N-methyl-D-aspartate (NMDA) administration in the mouse. Injection volumes and treatment options can be found in Table 18. Groups 7 and 8 were added to test a higher concentration of MK-801. The tissues for bioanalysis were snap frozen whole instead of being homogenized. The methods of adding IBMX to whole blood were established and clarified. This study was conducted in wild type mice (Mus musculus, C57BL/6).
Following euthanasia, eyes of elected animals were processed for histological or immunological examination. The ODs of animal 519 (Group 5) and 629 (Group 6) were noted to have a very small lens, blood in the retina, and the eye was filled with a gel-like substance. […] For Groups 1 and 2, immediately following euthanasia, selected eyes were collected into 10% neutral buffered formalin. The eyes were placed in 70% ethanol the following day. The eyes were then processed to paraffin blocks for sectioning. Sagittal sections of each eye (5 μm thickness) were prepared for all animals. At least 3 slides containing a ribbon of approximately 5 sections were collected sequentially. The optic nerve was included in the sectioning. The slides were stained for hematoxylin and eosin (H&E) and examined using light microscopy. Retinal ganglion cells (RGC) were counted (Table 19 and FIG. 9C).

[3] = system: retinal ganglion cells (RGC); test: NMDA excitotoxicity mouse model: RGC count by retinal Flatmount; type: in vivo, C57BL/6)
Method: This study was for evaluating the effect of adeno-associated viral (AAV) vectors on retinal ganglion cell protection following damage caused via N-methyl-D-aspartate (NMDA) administration in the mouse. […] Groups 7 and 8 were added to test a higher concentration of MK-801. […] This study was conducted in wild type mice (Mus musculus, C57BL/6).
300 μL of the 5 mM NMDA stock was combined with 300 μL of sterile PBS and 1 μL as injected on Day 0 for a final concentration of 2.5 mM NMDA.
300 μL of the 5 mM NMDA stock as combined with 300 μL of sterile-filtered MK-801 and 1 μL was injected on Day 0 for a final concentration of 2.5 mM NMDA/100 μM MK-801.
300 μL of the 5 mM NMDA stock was combined with 300 μL of sterile PBS and 1 μL was injected on Day 0 for a final concentration of 2.5 mM NMDA.
On Day −28 or Day 0 based on the experimental design, mice were given buprenorphine 0.01-0.05 mg/kg subcutaneously (SQ). Animals were then tranquilized for the intravitreal injections with ketamine/xylazine or inhaled isoflurane and one drop of 0.5% proparacaine HCl was applied to both eyes. The conjunctiva was gently grasped with Dumont #4 forceps, and the injection was made using a 33 G needle and a Hamilton syringe. After dispensing the syringe contents, the syringe needle was slowly withdrawn. Following the injection procedure, 1 drop of Ofloxacin ophthalmic solution was applied topically to the ocular surface with eye lube.
Eyes were enucleated and immediately fixed in 4% paraformaldehyde in phosphate-buffered saline (PBS) and stored overnight at 4° C. The following day, the eyes were transferred to cold immunocytochemistry (ICC) buffer (PBS containing 0.5% BSA and 0.2% Tween 20) until processing. Using a dissecting microscope, the eye was carefully trimmed of extraneous tissue at the limbus and, using fine curved scissors, the anterior chamber was removed. Retinas in the eye cup were rinsed with cold ICC buffer. Eye cups were placed in cold ICC buffer containing 1/100 rat anti-CNP36 (Groups 3-6 only; resuspended at 0.5 mg/mL in PBS) for 3 hours at 4° C. Eye cups were then washed extensively and stained with 1/200 donkey anti-rat Cy3 and 1/1,000 DAPI for 2-3 hours at 4° C. Groups 1 and 2 were stained with 1/500 TUJ-1 and 1/1000 DAPI, while Groups 7 and 8 were incubated with 1/1,000 DAPI alone. Eye cups were washed extensively but gently with cold ICC buffer. Using fine curved scissors and an eyelash knife, the retina was detached from the optic nerve head and removed from the RPE/choroid. Radial cuts were then made toward the center and retinas were flat mounted, covered, and sealed. 2D fluorescent microscopy images were acquired using an Olympus Bx63 upright fluorescent microscope. […] Images at 20× were acquired in 4 quadrants and a central 248.1×325.7 μm region was analyzed for RGC counts using Olympus cellSens and ImageJ software.
Groups 1 and 2 were stained with DAPI and TUJ-1 and images were captured at 20× (FIG. 10A). RGCs were counted in four quadrants, and cells/mm2 were averaged across each group.
Groups 3-8 were stained for DAPI and four images were captured for each retina at 20× approximately 600 μm from the optic nerve head. RGCs were counted in a central 248.1×325.7 μm region and cells/mm2 were averaged over each group (FIG. 10C).
The statistical analyses were performed on the Group 3-8 RGC data (one-way ANOVA followed by multiple comparisons using the Dunnett statistical hypothesis comparison).

[4] = Rat pONT model: ELISA of Fc4-CNP36 / CNP36 in ocular homogenate and serum; conditions: after IVT of FP protein, terminal samples; FIG. 18
Method: Make a mixture of RIPA and the protease inhibitor was prepared by adding one tablet of protease inhibitor in 10 mL of RIPA buffer. Ocular tissue was measured for the amount of buffer needed. For every 1 mg of tissue, 10 μL of buffer was added. The tube containing the tissue was sonicated for 20 seconds on ice followed by 20 seconds of rest on ice. The sonication and chilling on ice was repeated two more times making 3 cycles in total.
After complete homogenization, the tubes were placed on an orbital shaker in cold room for two hours. After two hours, the tubes were centrifuged for five minutes at 13,000 rpm. The supernatants were collected and stored store at −80° C.
Animals were culled at week 4 in categories 1 and 2, and at week 1 in category 3. Before culling, a blood sample (at least 2 mL) was collected by cardiac puncture under the terminal procedure, centrifuged to collect serum, and stored at −80° C.
The remaining three blocks (blocks 4-6) of animals from each category (36 rats in total) were used for protein analysis. After culling, both eyes from each animal were enucleated and snap-frozen with liquid nitrogen, cryogenically homogenized with mortar and pestle and stored at −80° C. until protein analysis.
A serial dilution of CNP-Fc can be used in the assay. The detection range of CNP-Fc concentration in this assay can be from 0.78 to 50 ng/mL. […]

[5] = system: intraocular pressure (IOP); test: Rat partial optic nerve transection (pONT) model: intraocular pressure (Tonolab tonometry); type: in vivo, rat (Dark Agouti)
Method: (§1) Using an experimental rat model of partial optic nerve transection (pONT), effects of Adeno-associated virus (AAV) CNP peptide (AAV-P) and protein Fc fusion (AAV-FP) on: retinal ganglion cell (RGC) apoptosis/stress in vivo was assessed using detection of apoptosing retinal cells (DARC) imaging; intraocular inflammation in vivo using Optical Coherence Tomography (OCT) imaging; intraocular pressure (IOP) in vivo using Tonolab tonometry; RGC survival histologically using immunohistochemistry on retinal whole mounts; and retinal microglial activity histologically using immunohistochemistry on retinal whole mounts.
(§2) In total, seventy-two male Dark Agouti (DA) rats aged 8-10 weeks were used in this study. The seventy-two animals were randomly divided into 3 categories.
(§3) Intravitreal injections (IVT, 4 μL) were given under general anesthesia (GA), according to the categories, and administered to the left eye (pONT eye) only once using a 34-gauge Hamilton needle at day 0 after BL imaging. pONT was performed at week 3 in Categories 1 and 2. In Category 3, pONT was performed soon after baseline imaging.
Partial optic nerve transection (pONT) surgery was performed under GA at week 3 in categories 1 and 2. […]
IOP. […] Ten IOP readings were collected from each eye of each animal at each time point.
IOP measurements were performed three times a week at weeks 1, 2, and 4. DARC spots on in vivo images were automatically counted by an algorithm developed and validated in the Cordeiro lab. […] RBPMS^+ RGCs in retinal whole mounts were automatically counted and analyzed by a recently developed and validated algorithm in the Cordeiro lab. […] The morphology of microglia in retinal whole mounts was automatically analyzed by a recently developed and validated machine learning approach in the Cordeiro lab.
IOP analysis in the both Fc4-CNP36 (FP) and AAV treatment. […] The IOP data was analyzed by subtracting OD (the right eye) from OS (the left eye) in each animal at each time point. […] FIG. 16A illustrates animal IOP monitored during the course of the study. […]

[6] = system: NIH3T3 cells (cGMP secreted); test: EC50 for CNP-Fc constructs, cGMP ELISA of NIH3T3 supernatant; type: cell-based; conditions: NIH3T3, 30 minutes, 1.8 mM IBMX, cGMP secreted by the cells; FIG. 25B
Method: EC50 for CNP-Fc described herein were measured by ELISA. 2.5E+05 NIH3T3 cells/well were plated. […] After 30 minutes, supernatant was collected for cGMP determined via ELISA. FIG. 25A illustrates a standard curve of cGMP.

[7] = system: apoptosing retinal cells (RGC apoptosis); test: Rat pONT model: DARC imaging of RGC apoptosis; type: in vivo, rat (Dark Agouti)
Method: as §1, §2, §3
Partial optic nerve transection (pONT) surgery was performed under GA at week 3 in categories 1 and 2. In category 3, pONT surgery was performed on day 0 after BL imaging. […]
DARC/OCT. under GA, DARC/OCT imaging was conducted at baseline (BL), weeks 1, 2, and 4 in categories 1 and 2. pONT was performed at week 3. […] Briefly, fluorescently labelled annexin 776 (6 mg/mL, 40 μL) was […] administrated 2 hours before DARC imaging and then assessed with a confocal scanning laser ophthalmoscope (cSLO). […]
IOP measurements were performed three times a week at weeks 1, 2, and 4. DARC spots on in vivo images were automatically counted by an algorithm developed and validated in the Cordeiro lab. […] RBPMS^+ RGCs in retinal whole mounts were automatically counted and analyzed by a recently developed and validated algorithm in the Cordeiro lab. […] The morphology of microglia in retinal whole mounts was automatically analyzed by a recently developed and validated machine learning approach in the Cordeiro lab. […]

[8] = system: retinal ganglion cells (RGC); test: Rat pONT model: RGC survival, RBPMS+ RGCs in retinal whole mounts; type: in vivo, rat (Dark Agouti)

| Molecule | number of TUJ-1+ and cone arrestin+ cells between groups [1] | mean RGC count, Group 2 versus Group 1 ([2]; H&E histopathology, ODs and OSs) | RGC #/HPF (400X) ([2]; L eye (OS, control eye, no NMDA)) | RGC #/HPF (400X) ([2]; R eye (OD, experimental eye: NMDA + MK-801)) | RGC protection by positive control ([3]; 100 μM MK-801) | RGC count, retinal Flatmount (Groups 1 and 2) ([3]; Group 2 ODs, NMDA + MK-801 co-injection IVT Day 0, DAPI and TUJ-1) | RGC count, retinal Flatmount (Groups 3-8) ([3]; Group 8 ODs, NMDA + 100 μM MK-801 co-injection IVT Day 0, DAPI) | P, RGC count NMDA+MK-801-treated (Group 8) versus NMDA-treated (Group 7 OD) eyes ([3]; one-way ANOVA, Dunnett, MK-801 100 μM) | FP4-CNP36 levels in treated eyes (OS) [4] | effect on IOP ([5]; IVT 2, 20 and 80 μg/eye of affinity purified FP) | dose at which IOP reduction reached maximal ([5]; IVT, range 2-80 μg/eye) [μg/eye] | p, reduction in the IOP ([5]; all FP concentrations (2, 20, 80 μg/eye IVT), Day 1 compared to baseline (Day 0) or Day 7 after pONT) | EC50 values (rank order) [6] | p, DARC count FP (High) versus AAV-Negative ([7]; 80 μg/eye IVT) | DARC count, FP conditions ([7]; FP 2, 20, 80 μg/eye IVT, baseline subtracted, listed as FP) | DARC count at highest FP dose ([7]; FP (H) = 80 μg/eye IVT, listed as FP) | RGC counts versus FP dose ([8]; FP 2, 20, 80 μg/eye IVT, FIG. 17B) | RGC counts in eyes after treatment ([8]; summary) |
| --- | --- | --- | --- | --- | --- | --- | --- | --- | --- | --- | --- | --- | --- | --- | --- | --- | --- | --- |
| C[C@]12N[C@H](Cc3ccccc31)c1ccccc12 [MK-801] | did not appear to be a difference | no differences in the mean RGC count | RGC #/HPF (400X) = 37; also recorded: RGC #/HPF (400X) = 35; also recorded: RGC #/HPF (400X) = 55; also recorded: RGC #/HPF (400X) = 38 | RGC #/HPF (400X) = 41; also recorded: RGC #/HPF (400X) = 31 | fully rescued the NMDA RGC loss phenotype | 9,000±500 cells/mm2 | 12,000±300 cells/mm2 | < 0.0001 | – | – | – | – | – | – | – | – | – | – |
| AMI263: purified fusion protein Fc4-(G4S)4-CNP36 (IgG4 Fc), SEQ ID NO: 135 | – | – | – | – | – | – | – | – | correlated to the dose amount | significant effect on IOP reduction | 2 | < 0.01 | CNP-22 ≡Fc4-CNP36>Aflibercept-Fc4-CNP36>Fc1-CNP36>>Fc4-CNP22 | 0.0078 | lowest DARC count; also recorded: dose-dependent effect | complete inhibition of DARC formation; also recorded: significant reduction compared to Sham control | increased with dose increase | RGC counts increased |
